Data on 25 compounds can be found in US20250099478A1, “PLASMA KALLIKREIN INHIBITORS” (Merck Sharp & Dohme LLC, priority 2022, published 2025).

For orientation: pIC50 means −log10 of the IC50, conventionally taken in molar units.

In one assay the target is T1, Human plasma kallikrein (Homo sapiens, UniProt P03952).
T1 construct: yields a heavy chain (371 amino acids) and a light chain (248 amino acids); purchased Enzyme Research Laboratories
As to the kind of experiment: Plasma Kallikrein Assay. The class given is biochemical. To be noted: purified Human plasma kallikrein 0.5 nM, substrate Acetyl-K-P-R-AFC; read-out: PKal IC50. Summed up: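 Purified human plasma kallikrein (0.5 nM) hydrolysing fluorogenic Acetyl-K-P-R-AFC ([…]) in 50 mM HEPES pH 7.4, 150 mM NaCl, 5 mM CaCl2, 0.1% PEG 8000, at rt or 37 °C after enzyme–inhibitor equilibration. IC50 from four-parameter logistic fit; Ki via Cheng–Prusoff.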

The next assay has as its target T2, human factor XIa (Homo sapiens, UniProt P03951).
T2 construct: with human (0.04 nM) factor XIa
As to the kind of experiment: Factor XIa Assay. The class given is biochemical. To be noted: human factor XIa 0.04 nM, substrate GPR-AFC, 25° C. The method, then:
The effectiveness of a compound of the present invention as an inhibitor of Coagulation factor XIa can be determined using a relevant purified serine protease, and an appropriate synthetic substrate. The rate of hydrolysis of the chromogenic or fluorogenic substrate by the relevant serine protease was measured both in the absence and presence of compounds of the present invention. Assays were conducted at rt or at 37° C. […] A decrease in the rate of fluorescence change in the presence of inhibitor is indicative of enzyme inhibition. Such methods are known to one skilled in the art. The results of this assay are expressed as the half-maximal inhibitory concentrations (IC50), or the inhibitory constant, Ki.
Compounds were pre-incubated for 30 min at 25° C. with human (0.04 nM) factor XIa in 50 mM HEPES buffer with 150 mM sodium chloride, 5 mM calcium chloride, 0.1% PEG 8000, pH 7.4. factor XIa enzymatic activity was determined by addition of the substrate glycine-proline-arginine-7-amido-4-trifluoromethylcoumarin (GPR-AFC) and measurement of the fluorescence at 400/505 nm after a 60 min incubation at 25° C. The % inhibition for each data point was calculated from the data and analyzed using the log (inhibitor) vs. response four parameters equation to determine the half-maximal inhibitory concentrations (IC50). The IC50 were converted to equilibrium inhibitory constants (Ki) using the Cheng-Prusoff equation.

pIC50: −log10 of the molar value.

T2 sequence (P03951 388-625 limits assumed): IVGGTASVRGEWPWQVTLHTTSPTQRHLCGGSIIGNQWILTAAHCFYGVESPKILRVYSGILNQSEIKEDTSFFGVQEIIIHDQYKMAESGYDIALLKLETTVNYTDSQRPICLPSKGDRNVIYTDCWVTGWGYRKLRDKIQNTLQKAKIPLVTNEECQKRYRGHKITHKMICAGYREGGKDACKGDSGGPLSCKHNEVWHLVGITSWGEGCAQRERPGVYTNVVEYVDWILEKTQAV
T2 sequence (P03951 19-387 partner limits assumed): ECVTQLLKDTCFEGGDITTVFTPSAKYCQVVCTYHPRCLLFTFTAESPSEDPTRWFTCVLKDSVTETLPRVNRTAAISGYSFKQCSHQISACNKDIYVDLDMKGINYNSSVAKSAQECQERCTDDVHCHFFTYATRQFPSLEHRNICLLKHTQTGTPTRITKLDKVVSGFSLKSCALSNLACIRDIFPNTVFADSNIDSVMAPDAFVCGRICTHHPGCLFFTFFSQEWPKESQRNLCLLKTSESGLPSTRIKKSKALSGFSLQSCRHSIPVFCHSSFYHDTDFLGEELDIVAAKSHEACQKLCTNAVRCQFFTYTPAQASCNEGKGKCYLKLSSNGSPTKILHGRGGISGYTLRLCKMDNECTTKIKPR
T1 sequence (P03952 391-638 limits assumed): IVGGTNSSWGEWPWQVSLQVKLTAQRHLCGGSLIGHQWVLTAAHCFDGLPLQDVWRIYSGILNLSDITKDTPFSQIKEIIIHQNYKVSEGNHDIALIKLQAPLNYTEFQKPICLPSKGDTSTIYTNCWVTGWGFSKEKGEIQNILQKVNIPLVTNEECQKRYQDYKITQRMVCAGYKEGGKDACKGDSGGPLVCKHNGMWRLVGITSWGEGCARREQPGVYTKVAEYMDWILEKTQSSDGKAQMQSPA
T1 sequence (P03952 20-390 partner limits assumed): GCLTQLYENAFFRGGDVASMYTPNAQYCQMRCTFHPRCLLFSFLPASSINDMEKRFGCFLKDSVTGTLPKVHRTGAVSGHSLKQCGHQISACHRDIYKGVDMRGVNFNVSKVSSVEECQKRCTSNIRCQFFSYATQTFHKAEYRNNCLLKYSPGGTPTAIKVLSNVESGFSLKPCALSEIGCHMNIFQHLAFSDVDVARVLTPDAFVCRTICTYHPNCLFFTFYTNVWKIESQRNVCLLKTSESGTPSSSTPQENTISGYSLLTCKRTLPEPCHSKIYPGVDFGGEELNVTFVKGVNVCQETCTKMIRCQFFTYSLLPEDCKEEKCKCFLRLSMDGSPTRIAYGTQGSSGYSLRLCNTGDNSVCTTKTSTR

For `O=C1Nc2ccc(Cl)c(F)c2[C@@]2(CCCN(C(=O)c3cnn([C@@H](CC4CC4)c4ccccc4)c3)C2)O1` (single isomer, unassigned) [Example 1], the figures for the pIC50 on Human plasma kallikrein and on human factor XIa were 8.16 and 5.80, respectively.
Consider `O=C1Nc2ccc(Cl)c(F)c2[C@@]2(CCCN(C(=O)c3cnn([C@H](CC4CC4)c4ccccc4)c3)C2)O1` (single isomer, unassigned) [Example 2], for which the pIC50 on Human plasma kallikrein was 8.49; at human factor XIa, 6.69.
Taken in the same sequence, the figures for `CCC(c1ccc(F)cc1)n1cc(C(=O)N2CCC[C@@]3(C2)OC(=O)Nc2ccc(Cl)c(F)c23)cn1` (single isomer, unassigned) [Example 25] were 7.98 and 6.68.
For `CCC(c1ccc(F)cc1)n1cc(C(=O)N2CCC[C@@]3(C2)OC(=O)Nc2ccc(Cl)c(F)c23)cn1` (single isomer, unassigned) [Example 26], the negative-log IC50 (pIC50) on Human plasma kallikrein was 8.16; on human factor XIa it was 5.12.
Taken in the same sequence, the figures for `O=C1Nc2ccc(Cl)c(F)c2[C@@]2(CCCN(C(=O)c3cnn(C(CC4CC4)c4ccccc4)c3)C2)O1` (single isomer, unassigned) [Example 29] were 8.16 and 5.80.
As for `CCC(c1cccc(S(C)(=O)=O)c1)n1cc(C(=O)N2CCC[C@@]3(C2)OC(=O)Nc2ccc(Cl)c(F)c23)cn1` (single isomer, unassigned) [Example 30], the pIC50 on Human plasma kallikrein is 8.24; against human factor XIa it was 5.36.
Consider `CCC(c1cccc(S(C)(=O)=O)c1)n1cc(C(=O)N2CCC[C@@]3(C2)OC(=O)Nc2ccc(Cl)c(F)c23)cn1` (single isomer, unassigned) [Example 31], for which the figures for the pIC50 at Human plasma kallikrein and on human factor XIa were 8.05 and 5.61, respectively.
For the compound `CCC(c1ccc2c(c1)OCO2)n1cc(C(=O)N2CCC[C@@]3(C2)OC(=O)Nc2ccc(Cl)c(F)c23)cn1` (single isomer, unassigned) [Example 32], the negative logarithm of the IC50 (pIC50) on Human plasma kallikrein was 8.34; on human factor XIa, 5.75.
`CCC(c1ccc2c(c1)OCO2)n1cc(C(=O)N2CCC[C@@]3(C2)OC(=O)Nc2ccc(Cl)c(F)c23)cn1` (single isomer, unassigned) [Example 33]: the pIC50 on Human plasma kallikrein is 8.38; at human factor XIa it was 5.32.
For the compound `CCC(c1ccc2cnccc2c1)n1cc(C(=O)N2CCC[C@@]3(C2)OC(=O)Nc2ccc(Cl)c(F)c23)cn1` (single isomer, unassigned) [Example 35], the negative logarithm of the IC50 (pIC50) at Human plasma kallikrein was 8.59; at human factor XIa, 5.99.
Regarding `CCC(c1ccc2cnccc2c1)n1cc(C(=O)N2CCC[C@@]3(C2)OC(=O)Nc2ccc(Cl)c(F)c23)cn1` (single isomer, unassigned) [Example 36], the negative logarithm of the IC50 (pIC50) was 8.55 on Human plasma kallikrein and 5.60 against human factor XIa.
For `CCC(c1ccnc(C(F)(F)F)c1)n1cc(C(=O)N2CCC[C@@]3(C2)OC(=O)Nc2ccc(Cl)c(F)c23)cn1` (single isomer, unassigned) [Example 37], the figures for the negative-log IC50 (pIC50) at Human plasma kallikrein and against human factor XIa were 8.59 and 5.84, respectively.
On the same counts, the results for `CCC(c1ccnc(C(F)(F)F)c1)n1cc(C(=O)N2CCC[C@@]3(C2)OC(=O)Nc2ccc(Cl)c(F)c23)cn1` (single isomer, unassigned) [Example 38] are 8.74 and 5.69.
`CCC(c1ccc2[nH]ncc2c1)n1cc(C(=O)N2CCC[C@@]3(C2)OC(=O)Nc2ccc(Cl)c(F)c23)cn1` (single isomer, unassigned) [Example 39]: the results for the negative-log IC50 (pIC50) on Human plasma kallikrein and on human factor XIa were 8.40 and 5.87, respectively.
On the same counts, the results for `CCC(c1ccc2[nH]ncc2c1)n1cc(C(=O)N2CCC[C@@]3(C2)OC(=O)Nc2ccc(Cl)c(F)c23)cn1` (single isomer, unassigned) [Example 40] are 8.15 and 6.00.
Regarding `CCC(c1ccc2ncncc2c1)n1cc(C(=O)N2CCC[C@@]3(C2)OC(=O)Nc2ccc(Cl)c(F)c23)cn1` (single isomer, unassigned) [Example 42], the pIC50 was 7.85 on Human plasma kallikrein and 5.28 against human factor XIa.
With `CCC(c1c(C)noc1C)n1cc(C(=O)N2CCC[C@@]3(C2)OC(=O)Nc2ccc(Cl)c(F)c23)cn1` (single isomer, unassigned) [Example 43], the values for the negative-log IC50 (pIC50) at Human plasma kallikrein and against human factor XIa were 7.57 and 5.33, respectively.
Taken in the same sequence, the figures for `CCC(c1c(C)noc1C)n1cc(C(=O)N2CCC[C@@]3(C2)OC(=O)Nc2ccc(Cl)c(F)c23)cn1` (single isomer, unassigned) [Example 44] were 8.23 and 5.62.
As for `CCC(c1cc(C)c2nc[nH]c2c1)n1cc(C(=O)N2CCC[C@@]3(C2)OC(=O)Nc2ccc(Cl)c(F)c23)cn1` (single isomer, unassigned) [Example 45, (4R)-6-Chloro-5-fluoro-1′-(1-((R or S)-1-(4-methyl-1H-benzo[d]imidazol-6-yl)propyl)-1H-pyrazole-4-carbonyl)spiro[benzo[d][1,3]oxazine-4,3′-piperidin]-2(1H)-one], the figures for the pIC50 at Human plasma kallikrein and on human factor XIa were 9.10 and 5.85, respectively.
For the compound `CCC(c1cc(C)c2nc[nH]c2c1)n1cc(C(=O)N2CCC[C@@]3(C2)OC(=O)Nc2ccc(Cl)c(F)c23)cn1` (single isomer, unassigned) [Example 46, (4R)-6-Chloro-5-fluoro-1′-(1-((S or R)-1-(4-methyl-1H-benzo[d]imidazol-6-yl)propyl)-1H-pyrazole-4-carbonyl)spiro[benzo[d][1,3]oxazine-4,3′-piperidin]-2(1H)-one], the pIC50 at Human plasma kallikrein is 8.92; against human factor XIa it was 6.07.
As for `O=C1Nc2ccc(Cl)c(F)c2[C@@]2(CCCN(C(=O)c3cnn(Cc4ccccc4)c3)C2)O1` [Example 3, (R)-1′-(1-Benzyl-1H-pyrazole-4-carbonyl)-6-chloro-5-fluorospiro[benzo[d][1,3]oxazine-4,3′-piperidin]-2(1H)-one], the negative logarithm of the IC50 (pIC50) on human factor XIa is 5.86.
As to `O=C1Nc2ccc(Cl)c(F)c2[C@]2(CCN(C(=O)c3cnn(Cc4ccc(Cn5ccccc5=O)cn4)c3)C2)O1` [Example 133, (S)-6-Chloro-5-fluoro-1′-(1-((5-((2-oxopyridin-1(2H)-yl)methyl)pyridin-2-yl)methyl)-1H-pyrazole-4-carbonyl)spiro[benzo[d][1,3]oxazine-4,3′-pyrrolidin]-2(1H)-one], at Human plasma kallikrein, the negative-log IC50 (pIC50) was 7.82.
For `Cc1cnn(Cc2ccc(Cn3cc(C(=O)N4CC[C@]5(C4)OC(=O)Nc4ccc(Cl)c(F)c45)cn3)cc2)c1` [Example 134, (S)-6-Chloro-5-fluoro-1′-(1-(4-((4-methyl-1H-pyrazol-1-yl)methyl)benzyl)-1H-pyrazole-4-carbonyl)spiro[benzo[d][1,3]oxazine-4,3′-pyrrolidin]-2(1H)-one], the negative logarithm of the IC50 (pIC50) on Human plasma kallikrein was 7.68.
On to `O=C1Nc2ccc(Cl)c(F)c2[C@]2(CCN(C(=O)c3cn(Cc4ccc(Cn5ccccc5=O)cc4)nc3C(F)(F)F)C2)O1` [Example 135, (S)-6-Chloro-5-fluoro-1′-(1-(4-((2-oxopyridin-1(2H)-yl)methyl)benzyl)-3-(trifluoromethyl)-1H-pyrazole-4-carbonyl)spiro[benzo[d][1,3]oxazine-4,3′-pyrrolidin]-2(1H)-one], for which, on Human plasma kallikrein, the pIC50 is 8.12.
On the same count and under the same terms, with `O=C1Nc2ccc(Cl)c(F)c2[C@]2(CCN(C(=O)C3(F)CCN(Cc4ccc(Cn5ccccc5=O)cc4)CC3)C2)O1` [Example 138, (4S)-6-Chloro-5-fluoro-1′-(4-fluoro-1-(4-((2-oxopyridin-1(2H)-yl)methyl)benzyl)piperidine-4-carbonyl)spiro[benzo[d][1,3]oxazine-4,3′-pyrrolidin]-2(1H)-one] the figure was 8.25.
